Source: the CombiSolv-Exp solvation set (Vermeire and Green 2021)
Blank lines part the entries; values can stand above or below the molecule they belong to.

Assay: solvent given as SMILES
[1] = in CCCCCCCCC=CCCCCCCCC(=O)OCC(COC(=O)CCCCCCCC=CCCCCCCCC)OC(=O)CCCCCCCC=CCCCCCCCC

Compound: Cc1cccc(C)c1
solvation free energy, 298 K (in CC#N): -5.18 kcal/mol | solvation free energy, 298 K (in CC(C)CC(C)(C)C): -5.12 kcal/mol | solvation free energy, 298 K (in CC(O)CO): -4.13 kcal/mol | solvation free energy, 298 K (in CCCCCCC): -5.39 kcal/mol | solvation free energy, 298 K (in CCCCCCCCCCCCCCCC): -5.27 kcal/mol | solvation free energy, 298 K (in CCCCCCCCO): -5.16 kcal/mol | solvation free energy, 298 K (in CCCCOC(C)=O): -6.06 kcal/mol | solvation free energy, 298 K (in CNC=O): -4.82 kcal/mol | solvation free energy, 298 K (in COCCO): -5.09 kcal/mol | solvation free energy, 298 K (in ClCCCl): -5.98 kcal/mol | solvation free energy, 298 K (in NC=O): -3.29 kcal/mol | solvation free energy, 298 K (in NCCO): -3.85 kcal/mol | solvation free energy, 298 K (in O): -0.78 kcal/mol | solvation free energy, 298 K (in O=CN1CCOCC1): -5.03 kcal/mol | solvation free energy, 298 K (in OCCO): -3.42 kcal/mol | solvation free energy, 298 K (in OCCOCCO): -4.26 kcal/mol | solvation free energy, 298 K (in OCCOCCOCCO): -4.4 kcal/mol | solvation free energy, 298 K (in c1ccccc1): -5.99 kcal/mol

Compound: O=Cc1ccco1
solvation free energy, 298 K (in CCCCCCCC): -4.27 kcal/mol | solvation free energy, 298 K (in CCCCCCCCCC): -4.51 kcal/mol | solvation free energy, 298 K (in CCOC(C)=O): -6.3 kcal/mol | solvation free energy, 298 K (in O): -5.28 kcal/mol

Compound: O=[N+]([O-])c1ccc(Cl)cc1
solvation free energy, 298 K (in O): -5.05 kcal/mol

Compound: OC1CCCCCCCCCCC1
solvation free energy, 298 K (in O): -5.35 kcal/mol

Compound: CCOC(=O)CCC(=O)OCC
solvation free energy, 298 K (in O): -5.71 kcal/mol

Compound: C=C(C)CCCC
solvation free energy, 298 K (in C=CCCCCCCCCCCCCCC): -4.04 kcal/mol | solvation free energy, 298 K (in O): 1.66 kcal/mol

Compound: CCOC(C)(C)C
solvation free energy, 298 K (in C1CCCCC1): -4.12 kcal/mol | solvation free energy, 298 K (in CC(=O)N(C)C): -3.53 kcal/mol | solvation free energy, 298 K (in CCCCCC): -4.07 kcal/mol | solvation free energy, 298 K (in CCCCCCC): -3.98 kcal/mol | solvation free energy, 298 K (in CCCCCCCCO): -3.67 kcal/mol | solvation free energy, 298 K (in CCCCN(C=O)CCCC): -3.6 kcal/mol | solvation free energy, 298 K (in CCN1CCCC1=O): -3.42 kcal/mol | solvation free energy, 298 K (in CCN(CC)C(C)=O): -3.66 kcal/mol | solvation free energy, 298 K (in CCNC(C)=O): -3.49 kcal/mol | solvation free energy, 298 K (in CCNC=O): -3.38 kcal/mol | solvation free energy, 298 K (in CCOCC): -4.22 kcal/mol | solvation free energy, 298 K (in CN1CCCCC1=O): -3.44 kcal/mol | solvation free energy, 298 K (in CN(C)C=O): -3.31 kcal/mol | solvation free energy, 298 K (in CNC(C)=O): -3.4 kcal/mol | solvation free energy, 298 K (in CNC=O): -3.21 kcal/mol | solvation free energy, 298 K (in CO): -4.07 kcal/mol | solvation free energy, 298 K (in O): -1.61 kcal/mol

Compound: O=C(O)C=CC(=O)O
solvation free energy, 298 K (in CC(C)=O): -10.2 kcal/mol | solvation free energy, 298 K (in CC(C)O): -10.8 kcal/mol | solvation free energy, 298 K (in CCCO): -10.6 kcal/mol | solvation free energy, 298 K (in CCO): -10.8 kcal/mol | solvation free energy, 298 K (in O): -9.96 kcal/mol | solvation free energy, 298 K (in O=C1CCCCC1): -9.9 kcal/mol

Compound: CC(C)COCC(C)C
solvation free energy, 298 K (in CCCCCCCCCCCCCCCC): -4.72 kcal/mol | solvation free energy, 298 K (in CCCCCCCCO): -4.62 kcal/mol

Compound: CCN
solvation free energy, 298 K (in CCCCCC): -2.29 kcal/mol | solvation free energy, 298 K (in CCCCCCC): -2.09 kcal/mol | solvation free energy, 298 K (in CCCCCCCC): -2.05 kcal/mol | solvation free energy, 298 K (in CCCCCCCCCC): -1.93 kcal/mol | solvation free energy, 298 K (in CCCCCCCCCCCCCCCC): -2.22 kcal/mol | solvation free energy, 298 K (in O): -4.5 kcal/mol

Compound: FC(Cl)Cl
solvation free energy, 298 K (in CN1CCCC1=O): -1.34 kcal/mol | solvation free energy, 298 K (in CN(C)C=O): -1.35 kcal/mol | solvation free energy, 298 K (in O): 1.54 kcal/mol

Compound: O=C(O)Cc1cccc(Cl)c1
solvation free energy, 298 K (in O): -8.39 kcal/mol

Compound: Nc1ccc(S(N)(=O)=O)cc1
solvation free energy, 298 K (in O): -14.8 kcal/mol

Compound: CC(=O)CC(=O)c1cccs1
solvation free energy, 298 K (in O): -6.08 kcal/mol

Compound: CNCc1ccc(C)cc1
solvation free energy, 298 K (in O): -5.95 kcal/mol

Compound: Cc1ccc2cc(C)ccc2c1
solvation free energy, 298 K [1]: -8.29 kcal/mol | solvation free energy, 298 K (in CCCCCCCO): -8.28 kcal/mol | solvation free energy, 298 K (in CCCCCCO): -8.36 kcal/mol | solvation free energy, 298 K (in CCCCCO): -8.49 kcal/mol | solvation free energy, 298 K (in CCCCO): -8.59 kcal/mol | solvation free energy, 298 K (in CCO): -8.85 kcal/mol | solvation free energy, 298 K (in O): -2.37 kcal/mol

Compound: CC(C)CCO
solvation free energy, 298 K (in Brc1ccccc1): -5.27 kcal/mol | solvation free energy, 298 K (in C1CCOC1): -6.32 kcal/mol | solvation free energy, 298 K (in CC#N): -5.58 kcal/mol | solvation free energy, 298 K (in CC(C)O): -6.51 kcal/mol | solvation free energy, 298 K (in CCCCCC): -4.05 kcal/mol | solvation free energy, 298 K (in CCCCCCC): -3.96 kcal/mol | solvation free energy, 298 K (in CCCCCCCC): -3.98 kcal/mol | solvation free energy, 298 K (in CCCCCCCCCCO): -6.18 kcal/mol | solvation free energy, 298 K (in CCCCCCCCO): -6.08 kcal/mol | solvation free energy, 298 K (in CCCCOC(C)=O): -5.78 kcal/mol | solvation free energy, 298 K (in CO): -6.77 kcal/mol | solvation free energy, 298 K (in Cc1ccc(C)cc1): -4.93 kcal/mol | solvation free energy, 298 K (in Cc1cccc(C)c1): -4.93 kcal/mol | solvation free energy, 298 K (in Cc1ccccc1C): -4.94 kcal/mol | solvation free energy, 298 K (in Clc1ccccc1): -5.13 kcal/mol | solvation free energy, 298 K (in O): -4.41 kcal/mol | solvation free energy, 298 K (in [2H]O[2H]): -4.43 kcal/mol

Compound: Clc1ccc(C(c2ccccc2Cl)C(Cl)(Cl)Cl)cc1 (configuration not stated)
solvation free energy, 298 K [1]: -13.8 kcal/mol | solvation free energy, 298 K (in O): -5.31 kcal/mol

Compound: O=[O+][O-]
solvation free energy, 298 K (in COC(C)=O): -0.29 kcal/mol | solvation free energy, 298 K (in O): 0.82 kcal/mol

Continued, values first:

solvation free energy, 298 K (in O): -2.51 kcal/mol
Compound: CCCCC(=O)OCCC(C)CCC=C(C)C (configuration not stated)

solvation free energy, 298 K (in O): -3.65 kcal/mol
Compound: CCCNCCC

solvation free energy, 298 K (in O): -5.01 kcal/mol
Compound: CCCCCCCNCc1ccc(C)cc1

solvation free energy, 298 K (in O): -11.9 kcal/mol
Compound: CN(C)CC=C(c1ccc(Br)cc1)c1cccnc1

solvation free energy, 298 K (in O): -4.79 kcal/mol
Compound: CC1CCCCC1O (configuration not stated)

solvation free energy, 298 K (in O): -2.75 kcal/mol
Compound: C=O

solvation free energy, 298 K (in O): -0.12 kcal/mol
Compound: C=C1C=CC2(C(C)C)CC12 (configuration not stated)

solvation free energy, 298 K (in O): -2.5 kcal/mol
Compound: Cc1ccc2c(C)ccc(C(C)C)c2c1

solvation free energy, 298 K (in O): -2.55 kcal/mol
Compound: CCCCCOC(=O)CCC
